Assays:
[1] = target: KRAS (G12D)/CRAF (Homo sapiens (Human), UniProt P01116, G12D); test: TR-FRET biochemical KRAS:CRAF protein:protein interaction assay, KRAS (G12D); format: binding; details: GMPPNP loaded Biotin-KRAS (G12D), FLAG CRAF RBD; read-out: TR-Fret_PPI KRAS (G12D)/CRAF IC50
Procedure: (§1) The effect of test compounds on KRAS and CRAF protein: protein interaction (PPI) was measured by time resolved fluorescence resonance energy transfer (TR-FRET) Ras binding domain (RBD) assay, which uses a signal generated through fluorescent resonance energy transfer between a donor and an acceptor molecule when in close proximity to each other. Interference from buffer, media, etc. is reduced by dual-wavelength detection; the energy pulse from the excitation source is followed by a time delay, which allows interfering short-lived fluorescence to decay (Degorce et al. 2009).
(§2) The KRAS: CRAF PPI assay can be utilized to identify KRAS ‘ON’ state inhibitors, as the KRAS protein is loaded with GMPPNP (a non-hydrolyzable GTP analog), which represents the active KRAS ‘ON’ state. FLAG-tagged CRAF RBD binding to the GMPPNP loaded biotin-tagged KRAS will result in a fluorescence energy transfer from the donor (Tb-anti-FLAG, emission 620 nm) to the acceptor (SA-XL665, emission 665 nm). Disruption of KRAS and CRAF binding will reduce the TR-FRET signal.
(§3) Test compound was dissolved in DMSO to create a 1 mM stock solution. A 45 μL volume of stock solution was transferred to a 384well polypropylene plate. A 3fold, 10point dilution was performed by transferring 15 μL of test compound solution into 30 μL of DMSO.
(§4) Assay buffer A was prepared with […] Hepes, pH7.3, 0.002% Tween 20, 0.1% BSA, […] NaCl, 5 mM MgCl2, and 10 uM GMP-PNP. 4× KRAS Solution was prepared with 80 nM of Biotin-KRAS (G12D/V), GMPPNP loaded or Biotin-KRAS (WT), GMPPNP loaded protein in assay buffer A. 4× Raf RBD Solution was prepared with 400 nM FLAG CRAF RBD in assay buffer A. 2× Detection Mixture was prepared with 2 nM Tb-anti-FLAG antibody and 10 nM and 10 nM SA-XL665 in assay buffer A.
(§5) A volume of 100 nL of 100× test compound working solution or DMSO vehicle control solution was dispensed to each well (duplicate for each concentration) of a 384-well ProxiPlate Plus assay plate. A volume of 2.5 μL of 4× KRAS Solution was added to each well of the assay plate for a final concentration of 20 nM Biotin-KRAS (G12D/V),GMPPNP loaded or 20 nM Biotin-KRAS (WT), GMPPNP. For low control, add 2.5 μL of assay buffer (no KRAS protein). Pre-incubate assay plate for 30 minutes at room temperature. Following pre-incubation of test compound or DMSO with Biotin-KRAS (G12D/V),GMPPNP loaded or Biotin-KRAS (WT),GMPPNP, a volume of 2.5 μL of 4× FLAG cRAF RBD Solution was added to each well of the assay plate for a final concentration of 100 nM FLAG CRAF RBD. The assay plate was subjected to centrifuge at 1000 rpm for 1 minute and pre-incubate assay plate for 150 minutes at room temperature. Following the pre-incubation with FLAG cRAF RBD, a volume of 5 μl of 2× Detection Mixture was added to each well of the assay plate for a final concentration of 1 nM Tb-anti-FLAG and 5 nM SA-XL665. The assay plate was centrifuged at 1000 rpm for 1 minute and incubated for 90 minutes at room temperature. TR-FRET signal was measured on a BioTek Synergy Neo2 microplate reader (excitation at 340 nm, emission at 665 nn and 620 nm).
(§6) TR-FRET ratios were calculated by dividing the acceptor emission value (665 nm) by the donor emission value (620 nm) for each sample.
(§7) Percent inhibition was calculated by multiplying the normalized TR-FRET ratio by 100, where TR-FRET ratio^HIGH was the TR-FRET ratio obtained from wells with 1% DMSO and complete reaction mixture, TR-FRET ratio^LOW was the ratio obtained from wells with 1% DMSO and reaction mixture without KRAS protein and TR-FRET ratio^SAMPLE was the TR-FRET ratio from wells with test compound and complete reaction mixture. The IC50 values were calculated from normalized TR-FRET ratios with the Levenberg-Marquardt 4 parameter fitting procedure.
(§8) This assay quantifies the interaction of a KRAS mutant protein (e.g., G12V) with the CRAF Ras-binding domain (RBD). […]

[2] = test system: KRAS G12V dependent lung adenocarcinoma cell line, NCI-H441; test: Cellular pERK (Thr202/Tyr204) FRET/HTRF assay; format: cell-based; details: Homo sapiens, NCI-H441, cellular pERK (Thr202/Tyr204) HTRF, NCI-H441 cells
Outline: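 Adherent NCI-H441 cells, plated the previous night, receive test compound for one hour at 37 °C. They are then lysed with a buffer containing phosphatase inhibitors and incubated at room temperature with Eu3+-cryptate and d2 labelled anti-pERK antibodies. HTRF signal gives IC50 by curve fitting.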

[3] = target: KRAS (G12V)/CRAF (Homo sapiens (Human), UniProt P01116, G12V); test: TR-FRET biochemical KRAS:CRAF protein:protein interaction assay, KRAS (G12V); format: binding; details: GMPPNP loaded Biotin-KRAS (G12V), FLAG CRAF RBD; read-out: TR-Fret_PPI KRAS (G12V)/CRAF IC50
Procedure: as §1, §2, §3, §4, §5, §6, §7, §8

Sequence of KRAS (G12V)/CRAF (P01116-2 other isoform, or with tags, fused parts or gaps G12V): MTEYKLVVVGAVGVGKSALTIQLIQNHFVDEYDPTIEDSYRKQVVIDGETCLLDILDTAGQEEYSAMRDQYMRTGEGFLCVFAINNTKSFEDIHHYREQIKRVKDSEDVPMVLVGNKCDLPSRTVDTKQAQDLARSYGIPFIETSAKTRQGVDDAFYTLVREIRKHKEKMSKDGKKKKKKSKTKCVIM
Sequence of KRAS (G12D)/CRAF (P01116-2 other isoform, or with tags, fused parts or gaps G12D): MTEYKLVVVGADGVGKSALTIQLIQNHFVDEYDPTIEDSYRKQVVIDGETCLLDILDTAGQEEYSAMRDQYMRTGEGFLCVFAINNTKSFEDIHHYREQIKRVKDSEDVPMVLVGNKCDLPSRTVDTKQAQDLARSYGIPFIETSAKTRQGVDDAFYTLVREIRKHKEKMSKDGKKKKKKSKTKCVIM

SMILES | IC50 [1] | IC50 [2] | IC50 [3]
[2H]C([2H])(Oc1nc(N2CCOC[C@@H]3[C@H](F)[C@@H]32)c2cnc(-c3cc(N)cc4ccc(F)c(C#C)c34)c(F)c2n1)[C@@]12CCCN1C[C@H](F)C2 [Example 224, 5-ethynyl-6-fluoro-4-(8-fluoro-4-((1R,7R,8S)-8-fluoro-5-oxa-2-azabicyclo[5.1.0]octan-2-yl)-2-(((2R,7aS)-2-fluorotetrahydro-1H-pyrrolizin-7a(5H)-yl)methoxy-d2)pyrido[4,3-d]pyrimidin-7-yl)naphthalen-2-amine] | > 3 µM | 0.5 to 10 µM | > 3 µM
[2H]C([2H])(Oc1nc(N2CCOC[C@H]3[C@@H](F)[C@H]32)c2cnc(-c3cc(N)cc4ccc(F)c(C#C)c34)c(F)c2n1)[C@@]12CCCN1C[C@H](F)C2 [Example 225, 5-ethynyl-6-fluoro-4-(8-fluoro-4-((1S,7S,8R)-8-fluoro-5-oxa-2-azabicyclo[5.1.0]octan-2-yl)-2-(((2R,7aS)-2-fluorotetrahydro-1H-pyrrolizin-7a(5H)-yl)methoxy-d2)pyrido[4,3-d]pyrimidin-7-yl)naphthalen-2-amine] | 0.264 µM | < 0.05 µM | 2.91 µM
[2H]C([2H])(Oc1nc(N2CCOC[C@H]3[C@@H](Cl)[C@H]32)c2cnc(-c3cc(N)cc4ccc(F)c(C#C)c34)c(F)c2n1)[C@@]12CCCN1C[C@H](F)C2 [Example 247, 4-(4-((1S,7S,8R)-8-chloro-5-oxa-2-azabicyclo[5.1.0]octan-2-yl)-8-fluoro-2-(((2R,7aS)-2-fluorotetrahydro-1H-pyrrolizin-7a(5H)-yl)methoxy-d2)pyrido[4,3-d]pyrimidin-7-yl)-5-ethynyl-6-fluoronaphthalen-2-amine] | 1.39 µM | 0.05 to 0.5 µM | 3 µM
[2H]C([2H])(Oc1nc(N2CCOC[C@H]3[C@H](Cl)[C@H]32)c2cnc(-c3cc(N)cc4ccc(F)c(C#C)c34)c(F)c2n1)[C@@]12CCCN1C[C@H](F)C2 [Example 248, 4-(4-((1S,7S,8S)-8-Chloro-5-oxa-2-azabicyclo[5.1.0]octan-2-yl)-8-fluoro-2-(((2R,7aS)-2-fluorotetrahydro-1H-pyrrolizin-7a(5H)-yl)methoxy-d2)pyrido[4,3-d]pyrimidin-7-yl)-5-ethynyl-6-fluoronaphthalen-2-amine] | 0.00825 µM | < 0.05 µM | 0.0526 µM
[2H]C([2H])(Oc1nc(N2CCOC[C@@H]3[C@@H](Cl)[C@@H]32)c2cnc(-c3cc(N)cc4ccc(F)c(C#C)c34)c(F)c2n1)[C@@]12CCCN1C[C@H](F)C2 [Example 249, 4-(4-((1R,7R,8R)-8-chloro-5-oxa-2-azabicyclo[5.1.0]octan-2-yl)-8-fluoro-2-(((2R,7aS)-2-fluorotetrahydro-1H-pyrrolizin-7a(5H)-yl)methoxy-d2)pyrido[4,3-d]pyrimidin-7-yl)-5-ethynyl-6-fluoronaphthalen-2-amine] | 0.648 µM | < 0.05 µM | 3 µM
[2H]C([2H])(Oc1nc(N2CCOC[C@@H]3[C@H](Cl)[C@@H]32)c2cnc(-c3cc(N)cc4ccc(F)c(C#C)c34)c(F)c2n1)[C@@]12CCCN1C[C@H](F)C2 [Example 250, 4-(4-((1R,7R,8S)-8-chloro-5-oxa-2-azabicyclo[5.1.0]octan-2-yl)-8-fluoro-2-(((2R,7aS)-2-fluorotetrahydro-1H-pyrrolizin-7a(5H)-yl)methoxy-d2)pyrido[4,3-d]pyrimidin-7-yl)-5-ethynyl-6-fluoronaphthalen-2-amine] | 1.67 µM | 0.05 to 0.5 µM | 3 µM
[2H]C([2H])(Oc1nc(N2CCCO[C@H]3[C@H](Cl)[C@H]32)c2cnc(-c3cc(N)cc4ccc(F)c(C#C)c34)c(F)c2n1)[C@@]12CCCN1C[C@H](F)C2 [Example 316, 4-(4-((1R,7S,8R)-8-Chloro-2-oxa-6-azabicyclo[5.1.0]octan-6-yl)-8-fluoro-2-(((2R,7aS)-2-fluorotetrahydro-1H-pyrrolizin-7a(5H)-yl)methoxy-d2)pyrido[4,3-d]pyrimidin-7-yl)-5-ethynyl-6-fluoronaphthalen-2-amine] | 0.0141 µM | < 0.05 µM | 0.0512 µM
[2H]C([2H])(Oc1nc(N2CCCO[C@@H]3[C@@H](Cl)[C@@H]32)c2cnc(-c3cc(N)cc4ccc(F)c(C#C)c34)c(F)c2n1)[C@@]12CCCN1C[C@H](F)C2 [Example 317, 4-(4-((1S,7R,8S)-8-chloro-2-oxa-6-azabicyclo[5.1.0]octan-6-yl)-8-fluoro-2-(((2R,7aS)-2-fluorotetrahydro-1H-pyrrolizin-7a(5H)-yl)methoxy-d2)pyrido[4,3-d]pyrimidin-7-yl)-5-ethynyl-6-fluoronaphthalen-2-amine] | 3 µM | 0.05 to 0.5 µM | 3 µM
[2H]C([2H])(Oc1nc(N2CCOC[C@@H]3[C@@H](Cl)[C@@H]32)c2cnc(-c3cc(N)cc4ccc(F)c(C#C)c34)c(F)c2n1)[C@@]12CCCN1[C@H](C)[C@H](F)C2 [Example 339, 4-(4-((1R,7R,8R)-8-chloro-5-oxa-2-azabicyclo[5.1.0]octan-2-yl)-8-fluoro-2-(((2R,3R,7aS)-2-fluoro-3-methyltetrahydro-1H-pyrrolizin-7a(5H)-yl)methoxy-d2)pyrido[4,3-d]pyrimidin-7-yl)-5-ethynyl-6-fluoronaphthalen-2-amine] | 3 µM | 0.5 to 10 µM | ≥ 10 µM
[2H]C([2H])(Oc1nc(N2CCOC[C@H]3[C@H](Cl)[C@H]32)c2cnc(-c3cc(N)cc4ccc(F)c(C#C)c34)c(F)c2n1)[C@@]12CCCN1[C@H](C)[C@H](F)C2 [Example 340, 4-(4-((1S,7S,8S)-8-Chloro-5-oxa-2-azabicyclo[5.1.0]octan-2-yl)-8-fluoro-2-(((2R,3R,7aS)-2-fluoro-3-methyltetrahydro-1H-pyrrolizin-7a(5H)-yl)methoxy-d2)pyrido[4,3-d]pyrimidin-7-yl)-5-ethynyl-6-fluoronaphthalen-2-amine] | 0.00714 µM | < 0.05 µM | 0.0501 µM
[2H]C([2H])(Oc1nc(N2CCCC[C@@H]3[C@@H](Cl)[C@@H]32)c2cnc(-c3cc(N)cc4ccc(F)c(C#C)c34)c(F)c2n1)[C@@]12CCCN1C[C@H](F)C2 [Example 341, 4-(4-((1R,7S,8R)-8-chloro-2-azabicyclo[5.1.0]octan-2-yl)-8-fluoro-2-(((2R,7aS)-2-fluorotetrahydro-1H-pyrrolizin-7a(5H)-yl)methoxy-d2)pyrido[4,3-d]pyrimidin-7-yl)-5-ethynyl-6-fluoronaphthalen-2-amine] | 1.79 µM | 0.5 to 10 µM | ≥ 10 µM

From patent US20250282799A1, “SUBSTITUTED PYRIDO[4,3-d]PYRIMIDINES AS KRAS MODULATORS” (Alterome Therapeutics, Inc., priority 2023, published 2025)
